This note sets out measurements from patent US20230414826A1, “FIBRIN HYDROGELS” (Mayo Foundation for Medical Education and Research, priority 2020, published 2023).

For this test, the target named is T1, fibrinogen (Evicel) (Homo sapiens, UniProt P02671+P02675+P02679).
T1 construct: purchased Ethicon (Evicel Biologically Active Component 2)
T1 sequence (P02671 20-629 limits assumed): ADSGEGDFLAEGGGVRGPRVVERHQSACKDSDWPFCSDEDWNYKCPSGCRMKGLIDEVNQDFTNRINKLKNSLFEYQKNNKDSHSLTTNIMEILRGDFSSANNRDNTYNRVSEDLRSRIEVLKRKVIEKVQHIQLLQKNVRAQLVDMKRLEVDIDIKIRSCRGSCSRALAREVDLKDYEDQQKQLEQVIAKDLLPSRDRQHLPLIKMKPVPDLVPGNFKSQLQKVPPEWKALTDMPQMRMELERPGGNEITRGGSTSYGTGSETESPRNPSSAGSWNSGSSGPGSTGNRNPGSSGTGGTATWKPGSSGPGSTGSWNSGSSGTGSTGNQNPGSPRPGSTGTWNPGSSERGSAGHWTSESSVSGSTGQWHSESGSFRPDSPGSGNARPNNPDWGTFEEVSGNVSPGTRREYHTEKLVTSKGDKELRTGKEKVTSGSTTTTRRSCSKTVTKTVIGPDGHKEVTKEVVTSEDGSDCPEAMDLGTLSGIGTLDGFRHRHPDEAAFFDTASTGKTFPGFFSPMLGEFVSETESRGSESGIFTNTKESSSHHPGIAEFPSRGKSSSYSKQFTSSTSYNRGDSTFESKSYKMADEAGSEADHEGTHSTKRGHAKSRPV
T1 sequence (P02675 31-491): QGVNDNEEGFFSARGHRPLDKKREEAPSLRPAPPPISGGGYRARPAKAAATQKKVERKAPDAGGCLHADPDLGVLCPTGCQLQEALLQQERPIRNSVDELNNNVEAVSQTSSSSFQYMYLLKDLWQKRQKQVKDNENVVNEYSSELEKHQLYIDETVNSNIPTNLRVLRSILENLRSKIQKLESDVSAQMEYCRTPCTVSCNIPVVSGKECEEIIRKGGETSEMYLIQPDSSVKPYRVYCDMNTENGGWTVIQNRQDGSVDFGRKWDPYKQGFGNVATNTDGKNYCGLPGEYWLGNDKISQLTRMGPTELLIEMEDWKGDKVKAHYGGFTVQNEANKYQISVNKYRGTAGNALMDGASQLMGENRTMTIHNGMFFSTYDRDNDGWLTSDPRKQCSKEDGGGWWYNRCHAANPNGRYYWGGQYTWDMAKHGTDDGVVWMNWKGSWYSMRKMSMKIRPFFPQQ
T1 sequence (P02679 27-433 limits assumed): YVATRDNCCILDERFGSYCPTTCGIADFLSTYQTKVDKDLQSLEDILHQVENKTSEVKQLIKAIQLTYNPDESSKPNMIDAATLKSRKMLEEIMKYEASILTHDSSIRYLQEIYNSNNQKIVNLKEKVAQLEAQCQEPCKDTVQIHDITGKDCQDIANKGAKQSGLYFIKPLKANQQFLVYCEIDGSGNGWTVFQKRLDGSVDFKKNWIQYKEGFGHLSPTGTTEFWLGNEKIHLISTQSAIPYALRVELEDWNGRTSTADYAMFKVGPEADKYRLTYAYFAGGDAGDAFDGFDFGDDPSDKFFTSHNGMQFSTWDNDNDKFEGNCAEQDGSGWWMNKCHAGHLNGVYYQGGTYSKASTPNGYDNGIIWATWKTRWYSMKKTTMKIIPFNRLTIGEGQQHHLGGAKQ
As to the kind of experiment: Fibrinogen clotting assay with coagulation analyzer (Clauss method), tissue glue fibrinogen. The following applies: for gelation time (average clotting time): 4.58 mM additive in PBS, fixed 1:20 dilution of fibrinogen (Evicel); for clot time: dye 0.1% w/v; for Effect on Clotting Time: screen, multiple concentrations up to 4.58 mM. The test is classed as biochemical.

Setting [1] is: 0.01% (w/v) dye, 1:20 dilution of fibrinogen, n=10.
[2] abbreviates: 0.05% (w/v) dye, 1:20 dilution of fibrinogen, n=10.
The mark [3] stands for this setting: 0.10% (w/v) dye, 1:20 dilution of fibrinogen, n=10.

Bounds are passed on as bounds.

Take `Cc1cc(-c2ccc(/N=N/c3c(S(=O)(=O)O)cc4cc(S(=O)(=O)O)cc(N)c4c3O)c(C)c2)ccc1/N=N/c1c(S(=O)(=O)O)cc2cc(S(=O)(=O)O)cc(N)c2c1O` [TB, Trypan Blue]: the “Effect on Clotting Time” value is reported as “Increase”. The “gelation time (average clotting time)” value (n=10) was determined as 46.3 ± 3.2 s. Under setting [1], the clotting time stood at 17.6 ± 0.3 s. In addition, the clotting time under setting [2] came out at 18.1 ± 1.4 s. Under setting [3], this molecule registered a clotting time of 24.4 ± 2.3 s. The clotting time (0.2% (w/v) dye, 1:20 dilution of fibrinogen, n=10) worked out at 26.2 ± 4.2 s. The clotting time (0.3% (w/v) dye, 1:20 dilution of fibrinogen, n=10) stood at 25.2 ± 2.9 s. Where the note is “0.4% (w/v) dye, 1:20 dilution of fibrinogen, n=10”, this molecule gave a clotting time of 29.8 ± 1.2 s. This molecule also had a clot time (fibrinogen 10.0 mg/mL) of 15.7 ± 3.1 s. For the setting “fibrinogen 10.9 mg/mL”, this molecule displayed a clot time of 16.3 ± 0.4 s. Where the note is “fibrinogen 12.0 mg/mL”, this molecule yielded a clot time of 11.6 ± 3.7 s. Further, the clot time (fibrinogen 13.3 mg/mL) amounted to 18.1 ± 0.4 s. Also, the clot time (fibrinogen 17.1 mg/mL) was 7.4 ± 0.1 s. The molecule also yielded a clot time (fibrinogen 24.0 mg/mL) of 5.6 ± 0.1 s.
For `Cc1cc(-c2ccc(/N=N/c3ccc4c(S(=O)(=O)O)cc(S(=O)(=O)O)c(N)c4c3O)c(C)c2)ccc1/N=N/c1ccc2c(S(=O)(=O)O)cc(S(=O)(=O)O)c(N)c2c1O` [EB, Evans Blue], the “Effect on Clotting Time” value is “Increase”. Also, the “gelation time (average clotting time)” value (n=10) is greater than 70 s. For the same molecule, under setting [1], the clotting time came out at 19.4 ± 0.7 s. Further, the clotting time under setting [2] was 34.8 ± 4.7 s. In addition, the clotting time under setting [3] was 43.6 ± 2.5 s. For the setting “0.2-0.4% dye, out of range of detection of the coagulation analyzer”, the clotting time was greater than 70 s. Besides, the clot time (fibrinogen 10.0 mg/mL) is 50.9 ± 4.9 s. The same molecule displayed a clot time (fibrinogen 10.9 mg/mL) of 39.5 ± 3.3 s. The molecule also yielded a clot time (fibrinogen 12.0 mg/mL) of 31.7 ± 1.8 s. Where the note is “fibrinogen 13.3 mg/mL”, this molecule yielded a clot time of 25.7 ± 1.0 s. The same molecule had a clot time (fibrinogen 17.1 mg/mL) of 14.8 ± 0.4 s. This molecule displayed a clot time (fibrinogen 24.0 mg/mL) of 8.9 ± 2.3 s.
